In article PMC7037947, “Novel ACE Inhibitory Peptides Derived from Simulated Gastrointestinal Digestion in Vitro of Sesame (Sesamum indicum L.) Protein and Molecular Docking Study” (International Journal of Molecular Sciences, 2020):
Ends that are not written are not given here.

T1: Angiotensin Converting Enzyme (ACE) from rabbit lung (rabbit) (UniProt P12822)
T1 sequence: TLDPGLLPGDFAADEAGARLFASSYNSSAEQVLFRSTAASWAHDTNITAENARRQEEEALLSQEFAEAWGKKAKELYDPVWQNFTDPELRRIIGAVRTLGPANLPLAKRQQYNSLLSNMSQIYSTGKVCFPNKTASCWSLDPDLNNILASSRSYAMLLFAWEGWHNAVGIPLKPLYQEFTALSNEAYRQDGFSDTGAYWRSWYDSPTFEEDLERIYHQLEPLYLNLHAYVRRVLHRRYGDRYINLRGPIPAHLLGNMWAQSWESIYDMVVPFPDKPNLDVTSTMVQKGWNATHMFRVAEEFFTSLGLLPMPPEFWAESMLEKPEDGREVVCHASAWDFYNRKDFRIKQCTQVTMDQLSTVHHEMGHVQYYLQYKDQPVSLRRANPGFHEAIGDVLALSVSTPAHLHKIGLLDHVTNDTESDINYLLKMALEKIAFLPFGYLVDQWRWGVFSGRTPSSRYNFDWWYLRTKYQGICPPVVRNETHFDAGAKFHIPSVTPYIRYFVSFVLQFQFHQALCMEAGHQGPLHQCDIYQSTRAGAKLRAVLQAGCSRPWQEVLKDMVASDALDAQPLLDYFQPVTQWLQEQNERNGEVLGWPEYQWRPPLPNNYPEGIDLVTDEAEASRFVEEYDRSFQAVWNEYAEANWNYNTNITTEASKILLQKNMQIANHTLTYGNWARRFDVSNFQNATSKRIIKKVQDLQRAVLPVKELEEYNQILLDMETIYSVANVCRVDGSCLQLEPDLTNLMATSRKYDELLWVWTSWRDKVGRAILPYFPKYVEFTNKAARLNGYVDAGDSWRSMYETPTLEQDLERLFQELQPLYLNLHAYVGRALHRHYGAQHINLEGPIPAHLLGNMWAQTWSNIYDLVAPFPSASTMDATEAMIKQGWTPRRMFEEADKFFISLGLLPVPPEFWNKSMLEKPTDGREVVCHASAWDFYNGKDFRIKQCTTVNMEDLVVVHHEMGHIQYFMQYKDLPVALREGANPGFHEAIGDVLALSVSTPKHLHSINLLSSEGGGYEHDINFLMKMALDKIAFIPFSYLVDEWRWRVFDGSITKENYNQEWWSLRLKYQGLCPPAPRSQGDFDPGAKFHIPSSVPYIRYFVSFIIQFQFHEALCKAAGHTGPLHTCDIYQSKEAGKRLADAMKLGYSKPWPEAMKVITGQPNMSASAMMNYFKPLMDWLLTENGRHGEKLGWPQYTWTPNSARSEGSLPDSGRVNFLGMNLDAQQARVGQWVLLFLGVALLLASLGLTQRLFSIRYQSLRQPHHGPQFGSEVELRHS

T2: Angiotensin Converting Enzyme (ACE) from rabbit lung (Oryctolagus cuniculus, UniProt P12822)
T2 construct: Angiotensin Converting Enzyme (ACE) from rabbit lung; purchased Sigma-Aldrich (St. Louis, MO, USA); host or cells: rabbit lung (tissue-derived)
T2 sequence (P12822 34-1310): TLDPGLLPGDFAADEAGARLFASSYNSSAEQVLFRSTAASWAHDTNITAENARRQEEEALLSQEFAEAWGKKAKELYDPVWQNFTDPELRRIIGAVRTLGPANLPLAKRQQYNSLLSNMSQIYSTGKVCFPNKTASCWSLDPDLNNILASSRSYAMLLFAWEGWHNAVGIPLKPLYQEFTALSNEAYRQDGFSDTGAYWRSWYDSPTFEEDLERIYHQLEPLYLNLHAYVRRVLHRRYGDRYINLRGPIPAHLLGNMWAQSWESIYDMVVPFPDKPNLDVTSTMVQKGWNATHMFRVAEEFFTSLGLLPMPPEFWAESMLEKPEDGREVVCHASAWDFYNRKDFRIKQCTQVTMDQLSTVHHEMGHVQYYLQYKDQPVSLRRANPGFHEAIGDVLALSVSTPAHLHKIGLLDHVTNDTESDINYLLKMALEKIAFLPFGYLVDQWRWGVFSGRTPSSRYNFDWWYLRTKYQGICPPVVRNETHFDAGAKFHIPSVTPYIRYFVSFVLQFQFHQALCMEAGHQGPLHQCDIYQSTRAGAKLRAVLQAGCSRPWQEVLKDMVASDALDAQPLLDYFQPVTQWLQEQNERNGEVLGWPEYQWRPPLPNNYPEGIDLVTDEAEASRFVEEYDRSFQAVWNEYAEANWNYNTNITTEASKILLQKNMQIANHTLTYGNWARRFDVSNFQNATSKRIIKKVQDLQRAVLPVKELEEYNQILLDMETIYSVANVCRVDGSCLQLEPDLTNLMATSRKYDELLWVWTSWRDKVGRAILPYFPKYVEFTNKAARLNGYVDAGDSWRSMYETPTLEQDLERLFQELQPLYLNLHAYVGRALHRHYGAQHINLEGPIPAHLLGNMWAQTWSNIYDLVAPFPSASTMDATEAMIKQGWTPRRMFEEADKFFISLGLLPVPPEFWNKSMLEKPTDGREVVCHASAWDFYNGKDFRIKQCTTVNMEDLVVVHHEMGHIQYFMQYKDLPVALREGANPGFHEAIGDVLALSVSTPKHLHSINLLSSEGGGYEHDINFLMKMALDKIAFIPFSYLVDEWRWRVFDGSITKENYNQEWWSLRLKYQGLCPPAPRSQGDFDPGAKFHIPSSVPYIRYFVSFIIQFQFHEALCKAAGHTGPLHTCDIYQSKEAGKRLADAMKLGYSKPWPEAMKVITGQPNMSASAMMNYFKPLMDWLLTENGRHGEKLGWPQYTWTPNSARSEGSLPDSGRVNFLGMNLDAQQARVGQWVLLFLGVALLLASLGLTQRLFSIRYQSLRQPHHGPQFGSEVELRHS

B1: … (peptide)
peptide: AGALGDSVTVTR
B2: HIGNILSL (peptide)
peptide: HIGNILSL
B3: PNYHPSPR (peptide)
peptide: PNYHPSPR
B4: GHIITVAR (peptide)
peptide: GHIITVAR
B5: … (peptide)
peptide: MPGVPGPIQR
B6: LAGNPAGR (peptide)
peptide: LAGNPAGR
B7: … (peptide)
peptide: AFPAGAAHW
B8: INTLSGR (peptide)
peptide: INTLSGR
B9: … (peptide)
peptide: FMPGVPGPIQR
B10: HIITLGR (peptide)
peptide: HIITLGR

target: T1, Angiotensin Converting Enzyme (ACE) from rabbit lung (rabbit); experiment: not given; details: not given

In order of falling IC50 of ACE inhibitory activity (enzyme activity on HHL substrate, OPA fluorescence, 37 °C, pH 8.3):
1. B8  150 μM
2. B6  148 μM
3. B10  74.7 μM
4. B1  68.5 μM
5. B5  54.8 μM
6. B2  36.7 μM
7. B7  29 μM
8. B3  19 μM
9. B9  11.1 μM
10. B4  3.6 μM

target: T2, Angiotensin Converting Enzyme (ACE) from rabbit lung; experiment: ACE inhibitory activity assay (HHL substrate, OPA fluorescence); type: biochemical; details: chemically synthesized peptides identified from peak 4; mean ± SD, n = 3; read-out: IC50 Value inhibiting ACE activity
Excerpt: White sesame (Sesamum indicum L.) seeds were purchased from China Oil and Foodstuffs Corporation (Beijing, China). […] Pepsin (3000-3500 NFU/g), trypsin (250.N.F.U/mg), and α-chymotrypsin (1200 u/mg) were obtained from Solarbio Science and Technology Co., Ltd. (Beijing, China). Nanofiltration and ultrafiltration membranes were purchased from Rising Sun Membrane Technology Co., Ltd. (Beijing, China). All other reagents used in this study were of analytical grade. The ACE inhibitory activity was measured by using cary eclipse fluorescence spectrophotometer (Agilent Technologies Australia Pty Ltd., Mulgrave, Australia) according to a modified method of Li et al.. The sample was dissolved by distilled water to the appropriate concentration and the 96-well plate was used as the reaction vessel. Briefly, 30 μL of HHL substrate containing 0.3 mol/L NaCl in 50 mM borate buffer (pH 8.3) and 15 μL of samples were mixed. […] The reaction was stopped by using 125 μL of 1.2 mol/L NaOH. Finally, 30 μL of methanol solution containing 2% OPA was added, mixed evenly, and then stood at room temperature for 20 min. The derivative reaction was terminated by adding 40 μL of 6 mol/L HCl. The reaction solution was diluted 10 times and added into the fluorescence cell. The fluorescence absorption intensity was measured within 30–90 min. […] All assays were performed in triplicate. ACE inhibitory activity was calculated by using the following equation:ACE inhibitory activity (%) = [1 − (a−c)/(b−d)] × 100(2) where a is the fluorescence absorption intensity in the presence of both ACE and inhibitor, b is the fluorescence absorption intensity in the presence of ACE but not inhibitor, c is the fluorescence absorption intensity in the presence of inhibitor but not ACE, d is the fluorescence absorption intensity in the absence of both ACE and inhibitor.

In order of rising IC50:
1. GHIITVAR  3.6 ± 0.1 µM
2. FMPGVPGPIQR  11.1 ± 0.15 µM
3. PNYHPSPR  19 ± 0.26 µM
4. AFPAGAAHW  29 ± 0.2 µM
5. HIGNILSL  36.69 ± 0.33 µM
6. MPGVPGPIQR  54.79 ± 0.37 µM
7. AGALGDSVTVTR  68.49 ± 0.14 µM
8. HIITLGR [HIITLGR]  74.65 ± 0.13 µM
9. LAGNPAGR  148.4 ± 0.35 µM
10. INTLSGR [INTLSGR]  149.6 ± 0.33 µM

test system: ACE; experiment: not given; design: method as in doi:10.1007/s10989-015-9471-y; details: peptide from sesame protein hydrolyzed by alcalase; ref [20]; cited from earlier work

For YAHYSYA, the “IC50 value, ACE inhibition” value is given as 600 µg/mL.

same assay, conditions: peptide from sesame protein hydrolyzed by alcalase; ref [20]; read-out: IC50 value, ACE inhibition; cited from earlier work

For YAHYSYA, the IC50 is listed as 687 µM.
